Results as given in ChEMBL document CHEMBL3351298, “Design, synthesis and evaluation of novel tacrine-(β-carboline) hybrids as multifunctional agents for the treatment of Alzheimer's disease” (Bioorg Med Chem, 2014).
The source made the active and inactive calls. No cut-off for these calls is given here.

Target: Amyloid-beta precursor protein (Homo sapiens) (UniProt P05067)
Assay: Inhibition of amyloid beta (1 to 42) (unknown origin) self-induced aggregation at 20 uM after 46 to 48 hrs by thioflavin-T based fluorometric assay
Conditions: not given

Sequence of Amyloid-beta precursor protein (Homo sapiens) (P05067 whole entry): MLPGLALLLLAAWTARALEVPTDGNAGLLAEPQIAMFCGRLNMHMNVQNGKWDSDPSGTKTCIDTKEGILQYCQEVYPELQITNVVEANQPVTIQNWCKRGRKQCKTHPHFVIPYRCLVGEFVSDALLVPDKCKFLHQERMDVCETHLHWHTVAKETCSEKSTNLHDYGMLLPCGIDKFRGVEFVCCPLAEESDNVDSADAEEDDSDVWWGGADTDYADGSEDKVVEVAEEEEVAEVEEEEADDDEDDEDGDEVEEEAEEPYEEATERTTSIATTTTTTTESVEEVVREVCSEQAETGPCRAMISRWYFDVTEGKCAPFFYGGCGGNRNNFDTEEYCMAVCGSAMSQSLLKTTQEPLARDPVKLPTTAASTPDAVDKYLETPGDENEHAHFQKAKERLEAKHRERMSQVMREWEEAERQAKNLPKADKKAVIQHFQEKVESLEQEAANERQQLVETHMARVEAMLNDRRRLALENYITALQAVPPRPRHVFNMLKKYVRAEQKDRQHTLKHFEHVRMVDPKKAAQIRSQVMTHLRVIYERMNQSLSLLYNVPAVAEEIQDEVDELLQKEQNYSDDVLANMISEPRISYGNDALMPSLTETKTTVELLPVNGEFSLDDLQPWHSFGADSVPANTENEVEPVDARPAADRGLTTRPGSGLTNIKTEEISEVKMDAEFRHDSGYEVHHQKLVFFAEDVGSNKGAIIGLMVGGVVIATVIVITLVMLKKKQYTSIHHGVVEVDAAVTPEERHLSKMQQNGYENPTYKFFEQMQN

| Structure (SMILES) | inhibition |
| --- | --- |
| Cc1nc(C(=O)NCCCCCCCCNc2c3c(nc4ccccc24)CCCC3)cc2c1[nH]c1ccccc12 | 36.6% |
| Cc1nc(C(=O)NCCNc2c3c(nc4ccccc24)CCCC3)cc2c1[nH]c1ccccc12 | 42.4% |
| CC(C)(C)OC(=O)N[C@@H](Cc1c[nH]c2ccccc12)C(=O)NCCCCCCNc1c2c(nc3ccccc13)CCCC2 | 62.1% |
| O=C(NCCCCCCNc1c2c(nc3ccccc13)CCCC2)c1cc2c([nH]c3ccccc32)c(-c2ccc(F)cc2)n1 | 29.7% |
| O=C(NCCCCCCNc1c2c(nc3ccccc13)CCCC2)[C@@H]1Cc2c([nH]c3ccccc23)CN1 | 65.8% |
| CCc1nc(C(=O)NCCCCCCNc2c3c(nc4ccccc24)CCCC3)cc2c1[nH]c1ccccc12 | 44.6% |
| COc1ccc(-c2nc(C(=O)NCCCCCCNc3c4c(nc5ccccc35)CCCC4)cc3c2[nH]c2ccccc23)cc1 | 25.2% |
| COC(=O)c1cc2c(cn1)[nH]c1ccccc12 [BETA-CCM] | 22.1% |
| Cc1nc(C(=O)NCCCCCCCCCCNc2c3c(nc4ccccc24)CCCC3)cc2c1[nH]c1ccccc12 | 38.8% |
| CC(C)(C)OC(=O)N1Cc2[nH]c3ccccc3c2C[C@H]1C(=O)NCCCCCCNc1c2c(nc3ccccc13)CCCC2 | 52.4% |
| CC1c2[nH]c3ccccc3c2C[C@@H](C(=O)NCCCCCCNc2c3c(nc4ccccc24)CCCC3)N1C(=O)OC(C)(C)C (some centres undefined) | 42.3% |

Test system: not listed separately
Assay: Metal chelating activity of the compound assessed as Cu2+ complex formation at 25 uM by UV-vis spectrometry
Type: physicochemical
Conditions: not given

| Structure (SMILES) | Activity |
| --- | --- |
| O=C(NCCCCCCNc1c2c(nc3ccccc13)CCCC2)[C@@H]1Cc2c([nH]c3ccccc23)CN1 | Active |

Test system: PC-12
Assay: Neuroprotective activity against H2O2-induced oxidative damage in rat PC12 cells assessed as increase in cell viability at 0.4 to 10 uM after 24 hrs by MTT assay
Type: functional, cell-based
Conditions: not given

| Structure (SMILES) | Activity |
| --- | --- |
| O=C(NCCCCCCNc1c2c(nc3ccccc13)CCCC2)[C@@H]1Cc2c([nH]c3ccccc23)CN1 | Active |

Test system: not listed separately
Assay: Neuroprotective activity against H2O2-induced oxidative damage in rat PC12 cells assessed as increase in cell viability at 10 uM after 24 hrs by MTT assay
Type: functional, PC-12
Conditions: not given

| Structure (SMILES) | Activity |
| --- | --- |
| O=C(NCCCCCCNc1c2c(nc3ccccc13)CCCC2)[C@@H]1Cc2c([nH]c3ccccc23)CN1 | 73.67% |

Test system: not listed separately
Assay: Retention time of the compound using CH3OH/H2O(0.1% Formic acid), 45% (v/v) of CH3OH gradient by HPLC analysis
Type: physicochemical
Conditions: not given

| Structure (SMILES) | Retention_time |
| --- | --- |
| O=C(NCCCCCCNc1c2c(nc3ccccc13)CCCC2)[C@@H]1Cc2c([nH]c3ccccc23)CN1 | 7.932 min |

Test system: not listed separately
Assay: Retention time of the compound using CH3OH/H2O(0.1% Formic acid), 55% (v/v) of CH3OH gradient by HPLC analysis
Type: physicochemical
Conditions: not given

| Structure (SMILES) | Retention_time |
| --- | --- |
| Cc1nc(C(=O)NCCNc2c3c(nc4ccccc24)CCCC3)cc2c1[nH]c1ccccc12 | 10.74 min |

Test system: not listed separately
Assay: Retention time of the compound using CH3OH/H2O (0.1% Formic acid), 60% (v/v) of CH3OH gradient by HPLC analysis
Type: physicochemical
Conditions: not given

| Structure (SMILES) | Retention_time |
| --- | --- |
| CC(C)(C)OC(=O)N1Cc2[nH]c3ccccc3c2C[C@H]1C(=O)NCCCCCCNc1c2c(nc3ccccc13)CCCC2 | 17.683 min |

Test system: not listed separately
Assay: Retention time of the compound using CH3OH/H2O (0.1% Formic acid), 65% (v/v) of CH3OH gradient by HPLC analysis
Type: physicochemical
Conditions: not given

| Structure (SMILES) | Retention_time |
| --- | --- |
| CCc1nc(C(=O)NCCCCCCNc2c3c(nc4ccccc24)CCCC3)cc2c1[nH]c1ccccc12 | 10.991 min |

Test system: not listed separately
Assay: Retention time of the compound using CH3OH/H2O(0.1% Formic acid), 70% (v/v) of CH3OH gradient by HPLC analysis
Type: physicochemical
Conditions: not given

| Structure (SMILES) | Retention_time |
| --- | --- |
| Cc1nc(C(=O)NCCCCCCCCNc2c3c(nc4ccccc24)CCCC3)cc2c1[nH]c1ccccc12 | 7.963 min |
| CC(C)(C)OC(=O)N[C@@H](Cc1c[nH]c2ccccc12)C(=O)NCCCCCCNc1c2c(nc3ccccc13)CCCC2 | 4.417 min |
| CC1c2[nH]c3ccccc3c2C[C@@H](C(=O)NCCCCCCNc2c3c(nc4ccccc24)CCCC3)N1C(=O)OC(C)(C)C (some centres undefined) | 8.219 min |

Test system: not listed separately
Assay: Retention time of the compound using CH3OH/H2O(0.1% Formic acid), 75% (v/v) of CH3OH gradient by HPLC analysis
Type: physicochemical
Conditions: not given

| Structure (SMILES) | Retention_time |
| --- | --- |
| O=C(NCCCCCCNc1c2c(nc3ccccc13)CCCC2)c1cc2c([nH]c3ccccc32)c(-c2ccc(F)cc2)n1 | 5.973 min |
| COc1ccc(-c2nc(C(=O)NCCCCCCNc3c4c(nc5ccccc35)CCCC4)cc3c2[nH]c2ccccc23)cc1 | 5.664 min |
| Cc1nc(C(=O)NCCCCCCCCCCNc2c3c(nc4ccccc24)CCCC3)cc2c1[nH]c1ccccc12 | 7.918 min |

Target: Acetylcholinesterase (Electrophorus electricus) (UniProt O42275)
Sequence (O42275 24-633 limits assumed): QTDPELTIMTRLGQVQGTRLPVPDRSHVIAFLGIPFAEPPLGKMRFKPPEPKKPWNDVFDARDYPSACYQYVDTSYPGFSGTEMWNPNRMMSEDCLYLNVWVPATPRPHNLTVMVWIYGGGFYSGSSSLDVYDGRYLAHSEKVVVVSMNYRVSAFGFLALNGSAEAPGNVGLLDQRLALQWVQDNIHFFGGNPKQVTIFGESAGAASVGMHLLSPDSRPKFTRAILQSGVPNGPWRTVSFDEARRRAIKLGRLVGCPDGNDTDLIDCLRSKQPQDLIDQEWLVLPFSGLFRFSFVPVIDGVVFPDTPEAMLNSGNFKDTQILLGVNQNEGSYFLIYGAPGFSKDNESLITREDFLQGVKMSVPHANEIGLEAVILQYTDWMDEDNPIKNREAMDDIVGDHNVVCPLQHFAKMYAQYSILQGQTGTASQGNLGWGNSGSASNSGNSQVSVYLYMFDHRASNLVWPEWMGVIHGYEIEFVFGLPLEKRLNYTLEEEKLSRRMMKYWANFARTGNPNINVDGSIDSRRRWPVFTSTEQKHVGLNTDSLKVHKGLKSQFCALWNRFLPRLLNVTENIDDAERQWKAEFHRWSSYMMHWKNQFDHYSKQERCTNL
Assay: Mixed-type of inhibition in electric eel AChE by Lineweaver-Burk plot analysis
Conditions: not given

| Structure (SMILES) | inhibition |
| --- | --- |
| O=C(NCCCCCCNc1c2c(nc3ccccc13)CCCC2)[C@@H]1Cc2c([nH]c3ccccc23)CN1 | Active |

Target: Acetylcholinesterase (Electrophorus electricus, UniProt O42275)
Sequence (O42275 whole entry): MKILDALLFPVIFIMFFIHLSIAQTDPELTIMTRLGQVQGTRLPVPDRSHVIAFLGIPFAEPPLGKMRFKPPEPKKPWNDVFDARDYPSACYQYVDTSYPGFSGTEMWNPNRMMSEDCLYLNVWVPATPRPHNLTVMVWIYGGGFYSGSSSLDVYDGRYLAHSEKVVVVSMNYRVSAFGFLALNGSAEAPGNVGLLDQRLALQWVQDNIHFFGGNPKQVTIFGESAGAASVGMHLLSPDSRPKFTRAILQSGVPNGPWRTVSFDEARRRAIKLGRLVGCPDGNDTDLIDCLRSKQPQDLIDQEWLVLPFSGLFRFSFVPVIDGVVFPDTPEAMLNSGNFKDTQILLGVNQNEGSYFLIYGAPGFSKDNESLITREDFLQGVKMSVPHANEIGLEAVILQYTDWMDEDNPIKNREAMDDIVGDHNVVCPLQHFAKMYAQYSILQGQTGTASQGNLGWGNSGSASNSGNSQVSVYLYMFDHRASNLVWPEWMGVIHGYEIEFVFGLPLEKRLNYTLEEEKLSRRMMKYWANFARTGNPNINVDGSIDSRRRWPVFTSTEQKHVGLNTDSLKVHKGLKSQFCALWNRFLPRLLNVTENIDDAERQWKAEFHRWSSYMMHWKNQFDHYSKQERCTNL
Assay: not given
Conditions: not given

| Structure (SMILES) | IC50 |
| --- | --- |
| Cc1nc(C(=O)NCCCCCCCCNc2c3c(nc4ccccc24)CCCC3)cc2c1[nH]c1ccccc12 | 107 nM |
| Cc1nc(C(=O)NCCNc2c3c(nc4ccccc24)CCCC3)cc2c1[nH]c1ccccc12 | 485 nM |
| CC(C)(C)OC(=O)N[C@@H](Cc1c[nH]c2ccccc12)C(=O)NCCCCCCNc1c2c(nc3ccccc13)CCCC2 | 67.3 nM |
| O=C(NCCCCCCNc1c2c(nc3ccccc13)CCCC2)c1cc2c([nH]c3ccccc32)c(-c2ccc(F)cc2)n1 | 230 nM |
| O=C(NCCCCCCNc1c2c(nc3ccccc13)CCCC2)[C@@H]1Cc2c([nH]c3ccccc23)CN1 | 21.6 nM |
| CCc1nc(C(=O)NCCCCCCNc2c3c(nc4ccccc24)CCCC3)cc2c1[nH]c1ccccc12 | 51.7 nM |
| COc1ccc(-c2nc(C(=O)NCCCCCCNc3c4c(nc5ccccc35)CCCC4)cc3c2[nH]c2ccccc23)cc1 | 97.7 nM |
| COC(=O)c1cc2c(cn1)[nH]c1ccccc12 [BETA-CCM] | 63000 nM |
| Cc1nc(C(=O)NCCCCCCCCCCNc2c3c(nc4ccccc24)CCCC3)cc2c1[nH]c1ccccc12 | 783 nM |
| CC(C)(C)OC(=O)N1Cc2[nH]c3ccccc3c2C[C@H]1C(=O)NCCCCCCNc1c2c(nc3ccccc13)CCCC2 | 141 nM |
| CC1c2[nH]c3ccccc3c2C[C@@H](C(=O)NCCCCCCNc2c3c(nc4ccccc24)CCCC3)N1C(=O)OC(C)(C)C (some centres undefined) | 389 nM |

Target: Cholinesterase (Equus caballus, UniProt P81908)
Sequence (P81908 whole entry): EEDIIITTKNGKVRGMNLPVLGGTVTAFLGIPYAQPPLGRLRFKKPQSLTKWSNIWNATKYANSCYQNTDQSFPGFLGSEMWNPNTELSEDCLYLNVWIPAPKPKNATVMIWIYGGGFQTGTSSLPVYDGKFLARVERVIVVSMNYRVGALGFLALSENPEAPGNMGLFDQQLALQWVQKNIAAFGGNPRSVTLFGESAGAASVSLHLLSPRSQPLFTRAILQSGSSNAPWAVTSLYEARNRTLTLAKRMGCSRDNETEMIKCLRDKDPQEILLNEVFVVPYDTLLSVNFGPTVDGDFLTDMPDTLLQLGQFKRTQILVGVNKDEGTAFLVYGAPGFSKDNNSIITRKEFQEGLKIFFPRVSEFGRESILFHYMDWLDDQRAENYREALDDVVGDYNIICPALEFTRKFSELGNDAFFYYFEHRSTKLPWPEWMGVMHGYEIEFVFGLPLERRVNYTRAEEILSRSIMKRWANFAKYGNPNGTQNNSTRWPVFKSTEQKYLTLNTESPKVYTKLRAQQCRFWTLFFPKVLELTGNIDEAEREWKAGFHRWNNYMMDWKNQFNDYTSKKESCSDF
Assay: not given
Conditions: not given

| Structure (SMILES) | IC50 |
| --- | --- |
| Cc1nc(C(=O)NCCCCCCCCNc2c3c(nc4ccccc24)CCCC3)cc2c1[nH]c1ccccc12 | 245 nM |
| Cc1nc(C(=O)NCCNc2c3c(nc4ccccc24)CCCC3)cc2c1[nH]c1ccccc12 | 539 nM |
| CC(C)(C)OC(=O)N[C@@H](Cc1c[nH]c2ccccc12)C(=O)NCCCCCCNc1c2c(nc3ccccc13)CCCC2 | 4.3 nM |
| O=C(NCCCCCCNc1c2c(nc3ccccc13)CCCC2)c1cc2c([nH]c3ccccc32)c(-c2ccc(F)cc2)n1 | 205 nM |
| O=C(NCCCCCCNc1c2c(nc3ccccc13)CCCC2)[C@@H]1Cc2c([nH]c3ccccc23)CN1 | 39.8 nM |
| CCc1nc(C(=O)NCCCCCCNc2c3c(nc4ccccc24)CCCC3)cc2c1[nH]c1ccccc12 | 96.9 nM |
| COc1ccc(-c2nc(C(=O)NCCCCCCNc3c4c(nc5ccccc35)CCCC4)cc3c2[nH]c2ccccc23)cc1 | 329 nM |
| COC(=O)c1cc2c(cn1)[nH]c1ccccc12 [BETA-CCM] | > 100000 nM |
| Cc1nc(C(=O)NCCCCCCCCCCNc2c3c(nc4ccccc24)CCCC3)cc2c1[nH]c1ccccc12 | 364 nM |
| CC(C)(C)OC(=O)N1Cc2[nH]c3ccccc3c2C[C@H]1C(=O)NCCCCCCNc1c2c(nc3ccccc13)CCCC2 | 7.5 nM |
| CC1c2[nH]c3ccccc3c2C[C@@H](C(=O)NCCCCCCNc2c3c(nc4ccccc24)CCCC3)N1C(=O)OC(C)(C)C (some centres undefined) | 22.3 nM |

Target: Acetylcholinesterase (Homo sapiens, UniProt P22303)
Sequence (P22303 whole entry): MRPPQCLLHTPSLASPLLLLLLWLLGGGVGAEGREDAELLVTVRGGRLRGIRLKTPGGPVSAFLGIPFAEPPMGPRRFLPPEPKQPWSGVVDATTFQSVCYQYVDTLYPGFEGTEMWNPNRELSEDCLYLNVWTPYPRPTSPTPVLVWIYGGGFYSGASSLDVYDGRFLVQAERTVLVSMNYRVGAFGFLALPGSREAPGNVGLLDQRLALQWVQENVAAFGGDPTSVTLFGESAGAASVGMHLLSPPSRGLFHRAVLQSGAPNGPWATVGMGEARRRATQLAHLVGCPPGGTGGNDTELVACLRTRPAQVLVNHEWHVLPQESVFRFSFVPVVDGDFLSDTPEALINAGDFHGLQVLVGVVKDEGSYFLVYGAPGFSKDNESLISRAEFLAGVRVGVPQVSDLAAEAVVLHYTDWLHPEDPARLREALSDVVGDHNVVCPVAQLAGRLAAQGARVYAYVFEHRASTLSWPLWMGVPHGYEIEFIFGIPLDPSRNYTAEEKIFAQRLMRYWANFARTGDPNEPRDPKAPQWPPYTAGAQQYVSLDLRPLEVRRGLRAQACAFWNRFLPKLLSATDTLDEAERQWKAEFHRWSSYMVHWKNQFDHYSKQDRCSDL
Assay: not given
Conditions: not given

| Structure (SMILES) | IC50 |
| --- | --- |
| Cc1nc(C(=O)NCCCCCCCCNc2c3c(nc4ccccc24)CCCC3)cc2c1[nH]c1ccccc12 | 153 nM |
| CC(C)(C)OC(=O)N[C@@H](Cc1c[nH]c2ccccc12)C(=O)NCCCCCCNc1c2c(nc3ccccc13)CCCC2 | 116 nM |
| O=C(NCCCCCCNc1c2c(nc3ccccc13)CCCC2)c1cc2c([nH]c3ccccc32)c(-c2ccc(F)cc2)n1 | 306 nM |
| O=C(NCCCCCCNc1c2c(nc3ccccc13)CCCC2)[C@@H]1Cc2c([nH]c3ccccc23)CN1 | 63.2 nM |
| CCc1nc(C(=O)NCCCCCCNc2c3c(nc4ccccc24)CCCC3)cc2c1[nH]c1ccccc12 | 98.2 nM |
| COc1ccc(-c2nc(C(=O)NCCCCCCNc3c4c(nc5ccccc35)CCCC4)cc3c2[nH]c2ccccc23)cc1 | 149 nM |
| CC(C)(C)OC(=O)N1Cc2[nH]c3ccccc3c2C[C@H]1C(=O)NCCCCCCNc1c2c(nc3ccccc13)CCCC2 | 187 nM |
| CC1c2[nH]c3ccccc3c2C[C@@H](C(=O)NCCCCCCNc2c3c(nc4ccccc24)CCCC3)N1C(=O)OC(C)(C)C (some centres undefined) | 526 nM |

Test system: not listed separately
Assay: in vitro
Conditions: PAMPA

| Structure (SMILES) | Papp |
| --- | --- |
| CC(C)(C)OC(=O)N[C@@H](Cc1c[nH]c2ccccc12)C(=O)NCCCCCCNc1c2c(nc3ccccc13)CCCC2 | 5.52 ×10⁻⁶ cm/s |
| O=C(NCCCCCCNc1c2c(nc3ccccc13)CCCC2)[C@@H]1Cc2c([nH]c3ccccc23)CN1 | 5.6 ×10⁻⁶ cm/s |
| CCc1nc(C(=O)NCCCCCCNc2c3c(nc4ccccc24)CCCC3)cc2c1[nH]c1ccccc12 | 4.97 ×10⁻⁶ cm/s |
| CC(C)(C)OC(=O)N1Cc2[nH]c3ccccc3c2C[C@H]1C(=O)NCCCCCCNc1c2c(nc3ccccc13)CCCC2 | 5.81 ×10⁻⁶ cm/s |
